Literature values, collected in patent US20260345619A1 (Principia Biopharma Inc., priority 2023, published 2026).

System: B cell lymphocyte kinase (BLK)
Conditions: cited from earlier work

For `CC(C)(C=C(C#N)C(=O)N1CCC[C@@H](n2nc(-c3ccc(Oc4ccccc4)cc3F)c3c(N)ncnc32)C1)N1CCN(C2COC2)CC1` (mixture of isomers) [rilzabrutinib, (R)-2-[3-[4-amino-3-(2-fluoro-4-phenoxy-phenyl)pyrazolo[3,4-d]pyrimidin-1-yl]piperidine-1-carbonyl]-4-methyl-4-[4-(oxetan-3-yl)piperazin-1-yl]pent-2-enenitrile], the IC50 is given as 6.3 nM.
